According to ChEMBL document CHEMBL1938230, “6-Position optimization of tricyclic 4-quinolone-based inhibitors of glycogen synthase kinase-3β: discovery of nitrile derivatives with picomolar potency” (Bioorg Med Chem Lett, 2012):

What was measured:
[1] = target: Phosphatidylinositol 3-kinase catalytic subunit type 3 (Homo sapiens) (UniProt Q8NEB9); assay: Inhibition of human PIK3C3 in HL-60 cells lysate assessed as reduction of labeling of acyl-phosphate ATP probe at 100 nM; type: cell-free
[2] = target: TRAF2 and NCK-interacting protein kinase (Homo sapiens) (UniProt Q9UKE5); assay: Inhibition of human ZC2/TNIK in HL-60 cells lysate assessed as reduction of labeling of acyl-phosphate ATP probe at 100 nM; type: cell-free
[3] = target: T1, Serine/threonine-protein kinase Nek1 (Homo sapiens) (UniProt Q96PY6); assay: Inhibition of human NEK1 in HL-60 cells lysate assessed as reduction of labeling of acyl-phosphate ATP probe at 100 nM; type: cell-free
T1 sequence (whole entry): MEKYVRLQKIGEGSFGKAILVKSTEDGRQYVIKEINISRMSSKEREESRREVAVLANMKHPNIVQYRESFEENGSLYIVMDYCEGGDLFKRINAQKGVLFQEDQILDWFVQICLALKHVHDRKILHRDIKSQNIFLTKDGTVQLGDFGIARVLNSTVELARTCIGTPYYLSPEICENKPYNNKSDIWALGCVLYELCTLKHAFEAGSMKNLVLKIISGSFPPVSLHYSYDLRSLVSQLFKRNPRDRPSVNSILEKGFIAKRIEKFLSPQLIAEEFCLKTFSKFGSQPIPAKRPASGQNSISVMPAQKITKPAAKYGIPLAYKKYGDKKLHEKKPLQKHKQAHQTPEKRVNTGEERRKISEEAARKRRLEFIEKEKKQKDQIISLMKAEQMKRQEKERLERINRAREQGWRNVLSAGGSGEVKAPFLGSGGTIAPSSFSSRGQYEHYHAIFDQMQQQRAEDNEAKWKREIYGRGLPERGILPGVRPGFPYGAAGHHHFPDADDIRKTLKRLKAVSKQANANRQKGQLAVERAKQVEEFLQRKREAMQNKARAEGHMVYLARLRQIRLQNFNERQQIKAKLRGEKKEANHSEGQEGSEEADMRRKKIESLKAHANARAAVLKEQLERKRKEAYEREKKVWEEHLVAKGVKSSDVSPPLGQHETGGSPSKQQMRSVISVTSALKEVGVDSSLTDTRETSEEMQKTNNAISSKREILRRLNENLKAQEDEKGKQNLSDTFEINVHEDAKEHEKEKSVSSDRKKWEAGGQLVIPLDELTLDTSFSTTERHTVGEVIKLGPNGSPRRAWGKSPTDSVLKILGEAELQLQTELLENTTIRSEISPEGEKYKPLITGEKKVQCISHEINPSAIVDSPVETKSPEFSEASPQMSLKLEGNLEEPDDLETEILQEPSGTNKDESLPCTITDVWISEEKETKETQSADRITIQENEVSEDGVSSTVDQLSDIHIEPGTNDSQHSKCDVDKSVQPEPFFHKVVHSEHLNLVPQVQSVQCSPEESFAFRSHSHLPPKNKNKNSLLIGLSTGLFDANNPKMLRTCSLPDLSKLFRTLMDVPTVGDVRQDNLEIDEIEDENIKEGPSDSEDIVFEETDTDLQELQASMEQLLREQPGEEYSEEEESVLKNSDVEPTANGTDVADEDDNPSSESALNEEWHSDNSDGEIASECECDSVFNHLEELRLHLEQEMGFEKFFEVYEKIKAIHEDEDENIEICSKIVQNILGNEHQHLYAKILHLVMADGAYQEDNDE

[4] = target: Serine/threonine-protein kinase Nek7 (Homo sapiens) (UniProt Q8TDX7); assay: Inhibition of human NEK7 in HL-60 cells lysate assessed as reduction of labeling of acyl-phosphate ATP probe at 100 nM; type: cell-free
[5] = target: T2, Dual specificity mitogen-activated protein kinase kinase 6 (Homo sapiens) (UniProt P52564); assay: Inhibition of human MAP2K6 in HL-60 cells lysate assessed as reduction of labeling of acyl-phosphate ATP probe at 100 nM; type: cell-free
T2 sequence (whole entry): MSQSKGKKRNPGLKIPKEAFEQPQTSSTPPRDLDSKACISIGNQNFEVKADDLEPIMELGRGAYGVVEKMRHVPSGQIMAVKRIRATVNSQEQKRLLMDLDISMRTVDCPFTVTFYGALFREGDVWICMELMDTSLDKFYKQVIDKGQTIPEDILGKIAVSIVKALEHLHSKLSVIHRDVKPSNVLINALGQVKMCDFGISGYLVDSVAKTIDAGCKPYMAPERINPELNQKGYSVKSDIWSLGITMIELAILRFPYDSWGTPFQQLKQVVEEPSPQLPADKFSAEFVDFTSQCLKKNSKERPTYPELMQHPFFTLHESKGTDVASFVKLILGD

[6] = target: Glycogen synthase kinase-3 beta (Homo sapiens, UniProt P49841); assay: Inhibition of human GSK3-beta in HL-60 cells lysate assessed as reduction of labelling of acyl-phosphate ATP probe at 100 nM; type: cell-free
[7] = target: T3, Dual specificity mitogen-activated protein kinase kinase 3 (Homo sapiens) (UniProt P46734); assay: Inhibition of human MAP2K3 in HL-60 cells lysate assessed as reduction of labeling of acyl-phosphate ATP probe at 100 nM; type: cell-free
T3 sequence (whole entry): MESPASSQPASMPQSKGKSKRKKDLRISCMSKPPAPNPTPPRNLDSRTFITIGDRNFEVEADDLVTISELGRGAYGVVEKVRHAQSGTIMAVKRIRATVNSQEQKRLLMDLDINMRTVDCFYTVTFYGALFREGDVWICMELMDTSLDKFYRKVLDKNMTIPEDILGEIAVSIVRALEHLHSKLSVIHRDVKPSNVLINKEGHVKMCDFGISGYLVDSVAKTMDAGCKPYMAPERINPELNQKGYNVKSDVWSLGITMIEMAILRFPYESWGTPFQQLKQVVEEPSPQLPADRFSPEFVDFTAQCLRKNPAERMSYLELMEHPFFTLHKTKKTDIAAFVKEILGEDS

HL-60 = assay: Inhibition of human CLK1/CLK4 in HL-60 cells lysate assessed as reduction of labeling of acyl-phosphate ATP probe at 100 nM

Phosphatidylinositol 3-kinase catalytic subunit type 3 (Homo sapiens), sequence (Q8NEB9 whole entry): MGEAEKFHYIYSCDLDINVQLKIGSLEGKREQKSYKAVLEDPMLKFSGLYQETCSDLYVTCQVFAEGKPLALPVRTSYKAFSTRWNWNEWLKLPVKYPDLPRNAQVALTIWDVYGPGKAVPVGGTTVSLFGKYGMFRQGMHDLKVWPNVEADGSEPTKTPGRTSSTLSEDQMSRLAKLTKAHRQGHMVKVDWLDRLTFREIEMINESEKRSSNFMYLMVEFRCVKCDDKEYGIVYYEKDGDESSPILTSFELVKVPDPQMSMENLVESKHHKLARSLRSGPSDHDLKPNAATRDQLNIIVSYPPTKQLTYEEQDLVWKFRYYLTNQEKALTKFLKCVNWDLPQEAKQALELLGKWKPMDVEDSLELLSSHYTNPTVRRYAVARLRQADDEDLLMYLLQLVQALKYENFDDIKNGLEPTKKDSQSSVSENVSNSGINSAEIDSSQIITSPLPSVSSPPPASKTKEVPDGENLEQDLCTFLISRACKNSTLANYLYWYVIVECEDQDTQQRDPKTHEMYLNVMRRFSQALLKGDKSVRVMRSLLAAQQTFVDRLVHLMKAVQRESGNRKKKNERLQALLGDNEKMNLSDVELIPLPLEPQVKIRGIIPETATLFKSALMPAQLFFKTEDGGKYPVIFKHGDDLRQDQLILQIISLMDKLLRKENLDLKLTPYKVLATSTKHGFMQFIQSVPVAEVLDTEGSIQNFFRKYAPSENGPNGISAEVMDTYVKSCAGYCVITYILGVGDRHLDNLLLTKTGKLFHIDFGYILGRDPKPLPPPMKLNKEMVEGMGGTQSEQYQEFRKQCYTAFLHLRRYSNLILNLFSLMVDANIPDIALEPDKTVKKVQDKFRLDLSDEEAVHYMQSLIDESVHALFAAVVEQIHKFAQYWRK
TRAF2 and NCK-interacting protein kinase (Homo sapiens), sequence (Q9UKE5 whole entry, looked up): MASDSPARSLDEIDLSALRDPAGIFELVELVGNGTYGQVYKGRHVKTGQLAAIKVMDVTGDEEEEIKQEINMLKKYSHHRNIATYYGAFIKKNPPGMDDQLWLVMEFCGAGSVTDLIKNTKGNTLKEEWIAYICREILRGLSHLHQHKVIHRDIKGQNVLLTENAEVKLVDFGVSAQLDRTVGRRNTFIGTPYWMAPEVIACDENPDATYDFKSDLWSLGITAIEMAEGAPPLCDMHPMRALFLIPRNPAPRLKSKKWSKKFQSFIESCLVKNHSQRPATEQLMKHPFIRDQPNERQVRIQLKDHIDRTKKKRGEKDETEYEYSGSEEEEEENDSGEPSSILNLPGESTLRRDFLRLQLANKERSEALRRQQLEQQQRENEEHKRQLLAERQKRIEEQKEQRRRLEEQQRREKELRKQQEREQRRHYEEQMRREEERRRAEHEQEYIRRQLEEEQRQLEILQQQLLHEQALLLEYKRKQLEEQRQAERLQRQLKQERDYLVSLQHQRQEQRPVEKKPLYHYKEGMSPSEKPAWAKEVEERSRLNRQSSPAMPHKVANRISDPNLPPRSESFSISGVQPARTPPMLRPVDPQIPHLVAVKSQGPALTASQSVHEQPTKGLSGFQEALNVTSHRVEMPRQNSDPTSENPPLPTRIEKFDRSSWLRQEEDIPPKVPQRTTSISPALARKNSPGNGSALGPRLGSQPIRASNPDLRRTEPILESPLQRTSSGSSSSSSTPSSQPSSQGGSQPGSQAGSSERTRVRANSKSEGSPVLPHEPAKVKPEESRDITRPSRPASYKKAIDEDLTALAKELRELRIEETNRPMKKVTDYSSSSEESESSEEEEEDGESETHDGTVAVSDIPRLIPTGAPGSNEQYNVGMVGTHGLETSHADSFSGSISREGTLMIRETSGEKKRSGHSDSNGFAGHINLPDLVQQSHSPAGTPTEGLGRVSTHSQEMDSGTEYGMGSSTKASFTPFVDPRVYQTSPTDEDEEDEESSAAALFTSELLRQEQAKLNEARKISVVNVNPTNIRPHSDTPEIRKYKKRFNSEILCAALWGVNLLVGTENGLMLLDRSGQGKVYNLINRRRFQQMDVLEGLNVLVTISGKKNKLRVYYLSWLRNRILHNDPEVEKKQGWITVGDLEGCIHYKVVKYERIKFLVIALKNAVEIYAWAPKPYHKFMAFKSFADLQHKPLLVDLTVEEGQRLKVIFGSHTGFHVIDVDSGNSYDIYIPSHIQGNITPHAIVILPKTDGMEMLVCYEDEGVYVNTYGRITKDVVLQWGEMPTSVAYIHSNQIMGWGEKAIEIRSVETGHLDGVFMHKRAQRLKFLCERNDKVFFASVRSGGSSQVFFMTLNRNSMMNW
Serine/threonine-protein kinase Nek7 (Homo sapiens), sequence (Q8TDX7 whole entry, looked up): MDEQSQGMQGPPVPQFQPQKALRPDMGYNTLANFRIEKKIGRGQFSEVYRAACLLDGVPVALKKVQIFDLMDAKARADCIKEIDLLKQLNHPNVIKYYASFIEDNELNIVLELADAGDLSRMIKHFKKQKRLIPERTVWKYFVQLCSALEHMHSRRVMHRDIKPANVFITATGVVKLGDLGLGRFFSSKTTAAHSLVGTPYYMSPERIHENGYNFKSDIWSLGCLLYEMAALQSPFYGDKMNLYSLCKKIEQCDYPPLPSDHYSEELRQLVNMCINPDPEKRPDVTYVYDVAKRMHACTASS
Glycogen synthase kinase-3 beta, sequence (P49841 whole entry, looked up): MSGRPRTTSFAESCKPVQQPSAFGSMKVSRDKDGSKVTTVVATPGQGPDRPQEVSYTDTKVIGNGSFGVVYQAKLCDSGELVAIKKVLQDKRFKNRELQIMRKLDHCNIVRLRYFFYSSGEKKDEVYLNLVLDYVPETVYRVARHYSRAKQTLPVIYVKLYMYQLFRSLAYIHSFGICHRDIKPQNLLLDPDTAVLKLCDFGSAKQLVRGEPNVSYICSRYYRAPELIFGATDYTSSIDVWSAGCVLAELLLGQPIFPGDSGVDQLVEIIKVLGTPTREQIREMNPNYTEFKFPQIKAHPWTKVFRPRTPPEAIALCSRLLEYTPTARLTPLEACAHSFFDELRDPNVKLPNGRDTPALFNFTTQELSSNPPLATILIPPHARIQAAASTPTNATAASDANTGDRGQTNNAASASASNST

Structure (SMILES)	inhibition [1] [%]	inhibition [2] [%]	inhibition [3] [%]	inhibition [4] [%]	inhibition [5] [%]	inhibition [6] [%]	inhibition [7] [%]	inhibition at 0.1 µM (HL-60) [%]
C[C@H]1COc2c(NCCCn3cccn3)c(F)c(N)c3c(=O)c(C(=O)O)cn1c23	< 35	< 35	< 35	< 35	< 35	87.8	< 35	< 35
C[C@H]1COc2c(NCCCc3ccccn3)c(F)c(N)c3c(=O)c(C#N)cn1c23	< 35	< 35	< 35	< 35	< 35	> 99.5	< 35	< 35
C[C@H]1COc2c(NCCCn3cccn3)c(F)c(N)c3c(=O)c(C#N)cn1c23	< 35	< 35	< 35	< 35	< 35	99.2	< 35	< 35
C[C@H]1COc2c(NCCCc3ccccn3)c(F)c(N)c3c(=O)c(C(=O)O)cn1c23	< 35	< 35	< 35	< 35	< 35	82.9	< 35	< 35
